Values after ≈ are worked out from the molar mass of the structure shown.
Columns and labels:
[1] = target: T1, HNE (human neutrophil elastase) (Homo sapiens, UniProt P08246); assay: HNE enzyme inhibition, kinetic Ki determination; format: biochemical; settings: for Ki: substrate MeO-Suc-Ala-Ala-Pro-Val-pNA, pH 7.6, read-out: Ki (NE)
T1 construct: Enzymes PR3 and HNE (HLE) were purchased from Athens Research and Technology (Athens, Ga.) or Elastin Products (Owensville, Mich.); purchased Athens Research and Technology (Athens, Ga.) or Elastin Products (Owensville, Mich.)
T1 sequence (P08246 30-267): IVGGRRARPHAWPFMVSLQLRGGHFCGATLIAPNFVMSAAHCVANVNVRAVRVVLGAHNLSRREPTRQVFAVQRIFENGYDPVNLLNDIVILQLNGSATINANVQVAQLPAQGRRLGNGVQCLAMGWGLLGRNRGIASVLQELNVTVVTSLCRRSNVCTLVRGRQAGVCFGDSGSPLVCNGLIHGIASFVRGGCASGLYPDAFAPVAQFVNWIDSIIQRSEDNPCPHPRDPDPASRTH
Method: (§1) The assays for measurement of PR3 and HNE enzyme and inhibitory activity were performed generally as described by Coeschott et al., Proc. Nat. Acad. Sci. USA, 96: 6261-6266, (1999). Kinetic characterization was performed generally by the techniques of Wieczorek et al., Archives of Biochem. and BioPhys., 367: 193-201 (1999). Enzymes PR3 and HNE (HLE) were purchased from Athens Research and Technology (Athens, Ga.) or Elastin Products (Owensville, Mich.).
(§2) The substrate used for HNE was MeO-Suc-Ala-Ala-Pro-Val-pNA, in 0.05 M sodium phosphate/0.1 M NaCl, pH 7.6, containing 0.001% Triton X-100 and 5% DMSO. The substrate used for PR3 was Boc-Ala-Pro-Nva-4-chloro-SBzl in 0.05 M potassium phosphate/0.1 M KCl, pH 7.6, containing 0.001% Triton X-100, and 10% DMSO. The cleavage of the thiobenzyl ester was detected with 250 μM […] (5′,5′-dithiobis-2-nitrobenzoic acid).
The concentration of active site of HNE was determined by titration with N-benzyloxycarbonyl-Ala-Ala-Pro-azaAla p-nitrophenyl ester or an alternative method. For the alternative method, the concentration of the active center of a HNE solution was first titrated with the above p-nitrophenyl ester, this HNE solution was then used to measure the active center concentration of an eglin c solution. Aliquots of the eglin c solution were stored at −70° C. and employed as a second standard to assay the activity of any newly prepared HNE solutions. No change in the activity of eglin c could be detected over a 3 year time interval as long as the solution was stored at −70° C. An important factor which influences the HNE assay is the method of dissolution of lyophilized enyme: if HNE is obtained in the lyophilized state, the protease solution should be dissolved, aliquoted, and stored at −20° C. for at least 48 hours prior to assay, so that the dried protein can be completely hydrated. Freshly dissolved enzyme which has not been stored for 48 hours may have proteolytic activity which is 10%-20% less that of stored enzyme.
Consequently, it is not always easy to achieve conditions in which the initial concentration of free inhibitor, [I]o, is much larger than the initial concentration of free enzyme, [E]o, i.e. the condition of [I]o≧10 [E]o is not easily fulfilled. […]
can only be employed when the condition of [I]o≧10 [E]o is fulfilled. In those cases in which the condition of [I]o≧10 [E]o is not met, the experimental data is analyzed using the Henderson equations according to the classic procedure (Henderson, P. J. F. Biochem. J. 127: 321, 1972) or with equations derived for slow-binding inhibition (Ying, Q-L. et al, Biochemistry 33: 5445, 1994). […]

[2] = target: T2, PR3 (human neutrophil proteinase 3) (Homo sapiens, UniProt P24158); assay: PR3 enzyme inhibition, Ki determination; format: biochemical; settings: substrate Boc-Ala-Pro-Nva-4-chloro-SBzl, pH 7.6
T2 construct: Enzymes PR3 and HNE (HLE) were purchased from Athens Research and Technology (Athens, Ga.) or Elastin Products (Owensville, Mich.); purchased Athens Research and Technology (Athens, Ga.) or Elastin Products (Owensville, Mich.)
T2 sequence (P24158 28-248): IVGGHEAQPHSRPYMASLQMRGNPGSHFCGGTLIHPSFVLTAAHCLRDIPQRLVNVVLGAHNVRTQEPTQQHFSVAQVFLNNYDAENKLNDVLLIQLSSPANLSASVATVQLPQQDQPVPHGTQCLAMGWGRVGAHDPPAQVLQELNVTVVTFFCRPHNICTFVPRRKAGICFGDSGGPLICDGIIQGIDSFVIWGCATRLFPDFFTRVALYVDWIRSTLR
Method: as §1, §2

[3] = Solubility in 0.1 M PBS by LC-MS; format: physicochemical; settings: aqueous buffer, kinetic from dmso stock; 0.1 M PBS pH 7.4, 2% DMSO, 2 hours at 37° C.
Method: Solubility of test compounds was measured by adding small volumes of DMSO stock solutions (final concentration 2% DMSO) to 0.1 M PBS (pH 7.4) and incubating for 2 hours at 37° C. Subsequently, the samples were filtered and the concentration of test compounds was determined by LC-MS.

[4] = Protein binding in dog plasma by equilibrium dialysis; format: in vitro ADME; settings: 10 μM, 6 hours at 37° C.
Method: Protein binding of test compounds in dog plasma was assessed by performing equilibrium dialysis with plasma containing test compound (10 μM) against 0.1 M PBS (pH 7.4). Following incubation (6 hours at 37° C.), the parent compound was measured in both plasma and buffer compartments by LC-MS and the percentage of compound bound to plasma proteins determined. […] Generally it is believed that only the unbound drug is available for pharmacological action.

[5] = Plasma stability in dog plasma; format: in vitro ADME; settings: 37° C., 2 hours, read-out: Plasma Stability (t1/2)
Method: Plasma stability of test compounds was accessed by incubating with dog plasma (37° C. at 1 μM) for 2 hours. Aliquots were taken at pre-defined times and the disappearance of parent compound was monitored by LC-MS.

Q: Which results are given for `CC(C)[C@H](NC(=O)[C@@H]1CCCN1C(=O)[C@@H](NC(=O)CCCCCNC(=O)c1ccccn1)C(C)C)C(=O)c1nnc(-c2ccccc2)o1` [AI-158]?
A: Ki [1]: 0.22 nM; Ki [2]: 8.4 nM; solubility at 2 h [3]: 69 µM (≈ 45.5 µg/mL); Plasma Protein Binding (% free) [4]: 8.0 % free; Protein binding in dog plasma (% bound) [4]: 92 % bound; half-life at 1 μM [5]: > 100 min

Q: With `CC(C)[C@H](NC(=O)CCCCCNC(=O)c1ccccn1)C(=O)N1CCC[C@H]1C(=O)N[C@H](C(=O)C(F)(F)F)C(C)C` [AI-167] as the compound, how does the solubility at 2 h [3] read?
A: 164 µM (≈ 95.7 µg/mL)

Q: And the “Plasma Protein Binding (% free)” value [4]?
A: 19.0 % free

Q: And the “Protein binding in dog plasma (% bound)” value [4]?
A: 81 % bound

Q: What about the half-life at 1 μM [5] of the same compound?
A: > 100 min

Q: Which Ki [1] does the source give for `CC(C)[C@H](NC(=O)[C@@H]1CCCN1C(=O)[C@@H](NC(=O)CCCCCNC(=O)c1ccccn1)C(C)C)C(=O)c1nnc(C(C)(C)C)o1` [AI-168] here?
A: 0.2 nM

Q: What about the Ki [2] of the same compound?
A: 3.9 nM

Q: What about the solubility at 2 h [3] of the same compound?
A: 179 µM (≈ 115 µg/mL)

Q: What about the “Plasma Protein Binding (% free)” value [4] of the same compound?
A: 17.0 % free

Q: And the “Protein binding in dog plasma (% bound)” value [4]?
A: 83 % bound

Q: And the half-life at 1 μM [5]?
A: > 100 min

Q: With `Cc1cccc(Cc2nnc(C(=O)[C@@H](NC(=O)[C@@H]3CCCN3C(=O)[C@@H](NC(=O)OCc3ccccc3)C(C)C)C(C)C)o2)c1` [CE-2072, reference compound] as the compound, how does the Ki [1] read?
A: 0.24 nM

Q: What about the “Ki for HLE (in words)” value ([1]; tight binding inhibitor of HLE) of the same compound?
A: subnanomolar range

Q: What about the Ki [2] of the same compound?
A: 24 nM

Q: And the solubility at 2 h [3]?
A: < 10 µM

Q: What about the “Plasma Protein Binding (% free)” value [4] of the same compound?
A: 1.0 % free

Q: And the half-life at 1 μM [5]?
A: > 100 min

— US20090156509A1, “Tri-peptide Inhibitors of Serine Elastases” (Accuthera, Inc., priority 2007, published 2009)
